Data on 17 molecules can be found in patent US11326207B2, “Sequencing using non-natural nucleotides” (Ultima Genomics, Inc., priority 2017, dated 2022).

Where two headings read alike, the source gives them in different places. Bounds are passed on as bounds.

The test system of one experiment is Bst 2.0 DNA polymerase. The experiment can be described thus: Homopolymer assays of nucleotide analogs (Example 10). The experiment is classed as biochemical. Here is the method:
A homopolymer assay was performed to investigate the effectiveness of E-dCTP and P-dUTP as nucleotide analogs of dCTP. 50 μl solutions containing a template nucleic acid molecule and primer and Bst 2.0 DNA polymerase are placed in a microplate reader and the fluorescence of the solution is measured in kinetic mode. A fluorescein attached to an oligonucleotide (indicated with a * in FIG. 7) was quenched in the substrate due to the proximity of complementary G bases. Addition of dCTP and/or dCTP analogs causes extension of the 3′ end of the primer, formation of double-stranded DNA, and unquenching of the fluorescein. The fluorescence increases with the addition of multiple nucleotides.
Additional homopolymer assays were performed according to the procedure outlined in Example 8 using different nucleotides and nucleotide analogs.
To test for dUTP or TTP incorporation, oligo 332 was used as a template and oligo 221L was used as a primer. To test for dCTP incorporation, oligo 333 was used as a template and oligo 221L was used as a primer. To test for dGTP incorporation, oligo 334 was used as a template and oligo 221L was used as a primer. To test for dATP incorporation, hairpin oligo 221 was used as both a primer and template.

The next experiment concerns Bst DNA polymerase v.2.0. The experiment can be described thus: Flow cytometry assay: tolerance of dye-labeled dUTP* compared to dUTP analogs (Example 7). It is filed as biochemical. The conditions noted are these: for Tolerance: tolerance of dUTP* compared to the named dUTP^0. Here is the method:
A solution of biotinylated template (2 microliters (μL) of 100 μM) and dye-labeled primer (4 μL of 100 μM) were combined in annealing buffer (40 μL; Tris (10 millimolar (mM)), EDTA (1 mM), NaCl (100 mM)). The resulting solution was heated to 95° C. and allowed to slowly cool to room temperature. A portion of this solution (8 μL) was mixed with streptavidin-labeled magnetic beads (4 μL of Invitrogen Dynabeads™ MyOne™ Streptavidin C1, 10 milligrams/milliliter (mg/mL); washed and eluant removed) and 2× bead wash buffer (8 μL; 10 mM Tris, pH 7.5, 1 mM EDTA, 2 M NaCl, 0.01% Triton X-100). After washing with TET solution (10 mM Tris, 1 mM EDTA, 0.05% Triton X-100) the beads were treated with Bst DNA polymerase v.2.0 (8 μL of 8 units (U)/μL; New England Biolabs) for five minutes. The excess enzyme was removed by washing with TET and the beads were suspended in 1×DNA polymerase buffer solution (20 mM Tris, pH 8, 10 mM NaCl, 2 mM MgCl2, 0.01% Triton X-100). The sequence of the biotinylated template was /52 Bio//iSp18/[…] […] (SEQ ID NO: 12), where “5” is indicative of the 5′-end of the oligo, 2-Bio indicates dual biotin, and iSP18 indicates a PEG spacer. […] […] (SEQ ID NO: 13), where “5” indicates the 5′-end of the oligo and JOE indicates a fluorescent dye attached to the oligo.
Next, a portion of the suspended magnetic beads (10 μL) were removed and placed in a PCR tube. A solution of nucleotides (10 μL) was added to the tube and the tube incubated for 40 seconds (s) at 50° C. The enzyme reaction was stopped with the addition of 5 μL of 50 mM EDTA. The beads were washed with 2×100 μL TET and resuspended in 20 μL TET. A portion of the bead solution (1 μL) was added to TE (200 μL) and the beads examined for red fluorescence on a flow cytometer (BD Accuri™, APC channel). The eluant of the remaining beads was removed and 40 μL of 95:5 formamide:10 mM EDTA was added to the beads. A portion of the formamide solution (1 μL) was added to 40 μL 95:5 formamide EDTA. The solutions were examined by capillary electrophoresis (CE) on an ABI 3730 instrument and the peaks identified and quantitated by peak height. The experimental protocol is summarized schematically in FIG. 2.
Tolerance was measured at two molar fractions, […] and 0.05, for each of the four dUTP analogs.
For orientation: A flow cytometer gives signals particle by particle.

The test system of a further experiment is hairpin oligo. Kind of experiment: Kinetic assay using hairpin oligos (Example 7). The experiment is classed as biochemical. The protocol:
A kinetic assay using hairpin oligos was also performed to determine the rate of incorporate of an unnatural nucleotide and a natural nucleotide following the unnatural nucleotide. […] Incorporation of a T or U analog unquenched a fluorescein in the hairpin oligo. Following incorporation of the T or U analog, a mixture of C and A was added, which further unquenched the dye.

In the next experiment the test system is DNA polymerase. The conditions noted are these: for peak height (red fluorescence on the gel): dUTP* only (Fr = 1.0) or dUTP*/named dUTP^0.
[1] abbreviates: Natural Nucleotide G (dGTP = 1), template oligo 334, primer 221L.
[2] abbreviates: Natural Nucleotide A (dATP = 1), hairpin oligo 221.
The mark [3] stands for this setting: Natural Nucleotide C (dCTP = 1), template oligo 333, primer 221L.
[4] abbreviates: Natural Nucleotide T (TTP = 1), template oligo 332, primer 221L.

For the molecule “iodo-2′-deoxyguanosine-5′-triphosphate [Iodo-dGTP]”, the “Relative Rate in Homopolymer Assay” value in the experiment on Bst 2.0 DNA polymerase (setting [1]) is recorded as over 1.

Regarding `Nc1ncnc2c1ncn2[C@H]1C[C@H](O)[C@@H](COP(=O)(O)OP(=O)(O)OP(=O)(O)O)O1` [dATP, deoxyadenosine triphosphate, reference compound], in the experiment on Bst 2.0 DNA polymerase (setting [2]), the “Relative Rate in Homopolymer Assay” value is 1.

As for `Nc1nc(=O)n([C@H]2C[C@H](O)[C@@H](COP(=O)(O)OP(=O)(O)OP(=O)(O)O)O2)cc1Br` [5-Bromo-dCTP, 5-bromo-2′-deoxycytidine 5′triphosphate], the “Relative Rate in Homopolymer Assay” value with Bst 2.0 DNA polymerase (setting [3]) is over 1.

`Nc1nc2c(ccn2[C@H]2C[C@H](O)[C@@H](COP(=O)(O)OP(=O)(O)OP(=O)(O)O)O2)c(=O)[nH]1` [7-deaza-dGTP, 7-deaza-2′-deoxyguanosine-5′-triphosphate]: the “Relative Rate in Homopolymer Assay” value in the experiment with Bst 2.0 DNA polymerase (setting [1]) was under 1.

In the case of `Nc1ncnc2c1ccn2[C@H]1C[C@H](O)[C@@H](COP(=O)(O)OP(=O)(O)OP(=O)(O)O)O1` [7-deaza-dATP, 7-deaza-2′-deoxyadenosine-5′-triphosphate], the “Relative Rate in Homopolymer Assay” value in the experiment with Bst 2.0 DNA polymerase (setting [2]) was under 1.

In the case of `Nc1nc(=O)n([C@H]2C[C@H](O)[C@@H](COP(=O)(O)OP(=O)(O)OP(=O)(O)O)O2)cc1C=O` [5-formyl-dCTP, 5-formyl-2′-deoxycytidine 5′triphosphate], the “Relative Rate in Homopolymer Assay” value in the experiment on Bst 2.0 DNA polymerase (setting [3]) is <<1.

In the case of `Nc1nc(=O)n([C@H]2C[C@H](O)[C@@H](COP(=O)(O)OP(=O)(O)OP(=O)(O)O)O2)cc1O` [5-Hydroxy-dCTP, 5-hydroxy-2′-deoxycytidine 5′triphosphate], the “Relative Rate in Homopolymer Assay” value in the experiment on Bst 2.0 DNA polymerase (setting [3]) is recorded as <<1.

In the case of `Cc1cn([C@H]2C[C@H](O)[C@@H](COP(=O)(O)OP(=O)(O)OP(=O)(O)O)O2)c(=O)nc1N` [5-Methyl-dCTP, 5-methyl-2′-deoxycytidine 5′triphosphate], in the experiment with Bst 2.0 DNA polymerase (setting [3]), the “Relative Rate in Homopolymer Assay” value is over 1.

For the molecule `O=c1[nH]c(=O)n([C@H]2C[C@H](O)[C@@H](COP(=O)(O)OP(=O)(O)OP(=O)(O)O)O2)cc1I` [5-Iodo-dUTP, 5-iodo-2′-deoxyuridine 5′triphosphate], the “Relative Rate in Homopolymer Assay” value in the experiment with Bst 2.0 DNA polymerase (setting [4]) is given as over 1.

`Nc1nc(=O)n([C@H]2C[C@H](O)[C@@H](COP(=O)(O)OP(=O)(O)OP(=O)(O)O)O2)cc1CO` [5-Hydroxymethyl-dCTP, 5-ydroxymethyl-2′-deoxycytidine 5′triphosphate]: the “Relative Rate in Homopolymer Assay” value in the experiment on Bst 2.0 DNA polymerase (setting [3]) is reported as <<1.

For the molecule `Nc1ncnc2c1nc(Br)n2[C@H]1C[C@H](O)[C@@H](COP(=O)(O)OP(=O)(O)OP(=O)(O)O)O1` [Bromo-dATP, bromo-deoxyadenosine triphosphate], in the experiment on Bst 2.0 DNA polymerase (setting [2]), the “Relative Rate in Homopolymer Assay” value is over 1.

On to `Nc1nc2c(ncn2[C@H]2C[C@H](O)[C@@H](COP(=O)(O)OP(=O)(O)OP(=O)(O)O)O2)c(=O)[nH]1` [dGTP, deoxyguanosine triphosphate, reference compound], for which, in the experiment with Bst 2.0 DNA polymerase (setting [1]), the “Relative Rate in Homopolymer Assay” value came out at 1.

With `C#CCNc1cn([C@H]2C[C@H](O)[C@@H](COP(=O)(O)OP(=O)(O)OP(=O)(O)O)O2)c(=O)[nH]c1=O` [5-Propargylamino-dUTP, 5-proparylamino-2′-deoxyuridine 5′triphosphate], the “Relative Rate in Homopolymer Assay” value in the experiment with Bst 2.0 DNA polymerase (setting [4]) was <<1.

`CC#Cc1cn([C@H]2C[C@H](O)[C@@H](COP(=O)(O)OP(=O)(O)OP(=O)(O)O)O2)c(=O)[nH]c1=O` [P-dUTP, 5-propynyl-2′-deoxyuridine 5′triphosphate]: the “performance as a substrate compared with TTP (in words)” value with Bst DNA polymerase v.2.0 (from tolerance for the labeled nucleotide at both molar fractions) was “outperforms TTP as a substrate”. The values for the Apparent fraction with Bst DNA polymerase v.2.0 (molar fraction dUTP* 0.05) and with Bst DNA polymerase v.2.0 (molar fraction dUTP* 0.5) were 0.032 and 0.32, respectively. Further, the Red signal was 1,600 with Bst DNA polymerase v.2.0 (molar fraction dUTP* 0.05, rest the named dUTP^0) and 16,000 in the experiment on Bst DNA polymerase v.2.0 (molar fraction dUTP* 0.5, rest the named dUTP^0). Also, the Tolerance with Bst DNA polymerase v.2.0 (molar fraction dUTP* 0.05) and in the experiment on Bst DNA polymerase v.2.0 (molar fraction dUTP* 0.5) was 0.6 each time. Moreover, the “incorporation of dCTP and dATP after the dUTP analog” value in the experiment with hairpin oligo (mixture of C and A added after T or U analog) is given as “rapid”. The “initial incorporation of dUTP analog” value in the experiment on hairpin oligo (unquenching of fluorescein in hairpin oligo) is reported as “rapid”. For the same molecule, the “Relative Rate in Homopolymer Assay” value in the experiment with Bst 2.0 DNA polymerase (setting [4]) is reported as over 1. Also, the “Norm. (ratio of peak height dUTP*/dUTP^0 to Fr=1.0)” value in the experiment on DNA polymerase (Peak 1) was determined as 1.3; with DNA polymerase (Peak 2), 1.4; with DNA polymerase (Peak 3), 1.0; in the experiment with DNA polymerase (Peak 4) it was 1.1; with DNA polymerase (Peak 5), 1.4. In addition, the “peak height (red fluorescence on the gel)” value in the experiment on DNA polymerase (Peak 1 (primer)) is 55; in the experiment on DNA polymerase (Peak 2 (primer)), 54; in the experiment on DNA polymerase (Peak 3 (primer)) it was 27; with DNA polymerase (Peak 4 (primer)) it was 36; with DNA polymerase (Peak 5 (primer)), 32. The “context C=(Maximum signal−minimum signal)/(average signal)” value in the experiment on DNA polymerase (five primers, gel assay with dUTP*) stood at 0.32.

Regarding `O=c1[nH]c(=O)n([C@H]2C[C@H](O)[C@@H](COP(=O)(O)OP(=O)(O)OP(=O)(O)O)O2)cc1Br` [5-Bromo-dUTP, 5-bromo-2′-deoxyuridine 5′triphosphate], the “Relative Rate in Homopolymer Assay” value in the experiment with Bst 2.0 DNA polymerase (setting [4]) is over 1.

Consider `O=c1[nH]c(=O)n([C@H]2C[C@H](O)[C@@H](COP(=O)(O)OP(=O)(O)OP(=O)(O)O)O2)cc1F` [5-Fluoro-dUTP, 5-fluoro-2′-deoxyuridine 5′triphosphate], for which, in the experiment with Bst 2.0 DNA polymerase (setting [4]), the “Relative Rate in Homopolymer Assay” value is under 1.

With `Nc1ncnc2c1c(I)cn2[C@H]1C[C@H](O)[C@@H](COP(=O)(O)OP(=O)(O)OP(=O)(O)O)O1` [7-Iodo-7-deaza-dATP, 7-deaza-7-iodo-2′-deoxyadenosine-5′-triphosphate], the “Relative Rate in Homopolymer Assay” value in the experiment with Bst 2.0 DNA polymerase (setting [2]) is over 1.
